# Experimental data taken from patent US20210261512A1, “NOVEL COMPOUNDS” (INFLAZOME LIMITED, priority 2018, published 2021).
# pIC50: −log10 of the molar value.
# Biological target: NLRP3 (Homo sapiens, UniProt Q96P20)
# Assay: THP-1 cells pyroptosis assay
# Assay type: cell-based
# Design: Seed THP-1 cells (25,000 cells/well) containing 1.0 μg/ml LPS; host or cells: THP-1
# Conditions: LPS 1.0 μg/ml, nigericin 5 μM, resazurin readout, 10 μM top dose (Example 2: top dose of 30 μM)
# Protocol: THP-1 cells (ATCC #TIB-202) were grown in RPMI containing L-glutamine (Gibco #11835) supplemented with imM sodium pyruvate (Sigma #S8636) and penicillin (100 units/ml)/streptomycin (0.1 mg/ml) (Sigma #P4333) in 10% Fetal Bovine Serum (FBS) (Sigma #F0804). The cells were routinely passaged and grown to confluency (˜10^6 cells/ml). On the day of the experiment, THP-1 cells were harvested and resuspended into RPMI medium (without FBS). The cells were then counted and viability (>90%) checked by Trypan blue (Sigma #T8154). Appropriate dilutions were made to give a concentration of 625,000 cells/ml. To this diluted cell solution was added LPS (Sigma #L4524) to give a 1 μg/ml Final Assay Concentration (FAC). 40 μl of the final preparation was aliquoted into each well of a 96-well plate. The plate thus prepared was used for compound screening.
# The following method step-by-step assay was followed for compound screening. • 1. Seed THP-1 cells (25,000 cells/well) containing 1.0 μg/ml LPS in 40 μl of RPMI medium (without FBS) in 96-well, black walled, clear bottom cell culture plates coated with poly-D-lysine (VWR #734-0317) • 2. Add 5 μl compound (8 points four-fold dilution or 8 points half-log dilution, with 10 μM top dose, unless stated otherwise) or vehicle (DMSO 0.1% FAC) to the appropriate wells • 3. Incubate for 3 hrs at 37° C. and 5% CO2 • 4. Add 5 μl nigericin (Sigma #N7143) (FAC 5 μM) to all wells • 5. Incubate for 1 hr at 37° C. and 5% CO2 • 6. At the end of the incubation period, spin plates at 300×g for 3 mins and remove supernatant • 7. Then add 50 μl of resazurin (Sigma #R^7017) (FAC 100 μM resazurin in RPMI medium without FBS) and incubate plates for a further 1-2 hrs at 37° C. and 5% CO2 • 8. Plates were read in an Envision reader at Ex 560 nm and Em 590 nm • 9. IC50 data is fitted to a non-linear regression equation (log inhibitor vs response-variable slope 4-parameters)
# NLRP3, sequence (Q96P20 whole entry): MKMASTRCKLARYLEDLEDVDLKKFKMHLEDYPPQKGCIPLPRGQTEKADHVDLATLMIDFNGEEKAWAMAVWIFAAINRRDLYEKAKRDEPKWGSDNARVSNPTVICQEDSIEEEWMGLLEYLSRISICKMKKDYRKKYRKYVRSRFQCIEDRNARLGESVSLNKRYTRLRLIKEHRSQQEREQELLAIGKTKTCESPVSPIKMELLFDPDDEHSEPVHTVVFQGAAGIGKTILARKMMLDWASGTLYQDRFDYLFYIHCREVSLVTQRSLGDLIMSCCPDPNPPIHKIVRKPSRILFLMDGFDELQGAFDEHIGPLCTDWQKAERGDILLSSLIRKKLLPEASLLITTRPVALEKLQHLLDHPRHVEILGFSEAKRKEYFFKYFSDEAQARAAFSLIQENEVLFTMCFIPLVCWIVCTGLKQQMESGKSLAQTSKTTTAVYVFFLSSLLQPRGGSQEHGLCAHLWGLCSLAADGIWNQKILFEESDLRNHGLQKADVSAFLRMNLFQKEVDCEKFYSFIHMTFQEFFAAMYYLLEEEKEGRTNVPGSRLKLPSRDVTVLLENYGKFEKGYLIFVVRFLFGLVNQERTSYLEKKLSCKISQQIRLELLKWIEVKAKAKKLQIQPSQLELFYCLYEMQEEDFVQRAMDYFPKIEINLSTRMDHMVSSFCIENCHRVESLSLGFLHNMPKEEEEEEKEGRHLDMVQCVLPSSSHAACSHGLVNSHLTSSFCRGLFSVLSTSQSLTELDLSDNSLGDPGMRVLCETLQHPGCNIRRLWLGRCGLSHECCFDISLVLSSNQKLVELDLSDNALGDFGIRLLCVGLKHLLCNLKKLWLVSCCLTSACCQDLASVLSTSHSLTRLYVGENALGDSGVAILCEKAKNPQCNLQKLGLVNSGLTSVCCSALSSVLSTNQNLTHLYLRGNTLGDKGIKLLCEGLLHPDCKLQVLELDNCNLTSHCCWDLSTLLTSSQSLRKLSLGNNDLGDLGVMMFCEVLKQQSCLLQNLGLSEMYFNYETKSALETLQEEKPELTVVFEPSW
row,Structure (SMILES),pIC50
1,"Cc1noc(CS(=O)(=O)c2nnc(Nc3c4c(cc5c3CCC5)CCC4)[nH]2)n1 [Example 70, N-(1,2,3,5,6,7-hexahydro-s-indacen-4-yl)-3-(((3-methyl-1,2,4-oxadiazol-5-yl)methyl)sulfonyl)-1H-1,2,4-triazol-5-amine]",≥ 5.30
2,"O=S(=O)(Cc1ccccn1)c1nnc(Nc2c3c(cc4c2CCC4)CCC3)[nH]1 [Example 71, N-(1,2,3,5,6,7-hexahydro-s-indacen-4-yl)-3-((pyridin-2-ylmethyl)sulfonyl)-1H-1,2,4-triazol-5-amine]",≥ 5.00
3,"O=S(=O)(Cc1ccncc1)c1nnc(Nc2c3c(cc4c2CCC4)CCC3)[nH]1 [Example 72, N-(1,2,3,5,6,7-hexahydro-s-indacen-4-yl)-3-((pyridin-4-ylmethyl)sulfonyl)-1H-1,2,4-triazol-5-amine]",≥ 5.00
4,"O=S(=O)(Cc1cccnc1)c1nnc(Nc2c3c(cc4c2CCC4)CCC3)[nH]1 [Example 73, N-(1,2,3,5,6,7-hexahydro-s-indacen-4-yl)-3-((pyridin-3-ylmethyl)sulfonyl)-1H-1,2,4-triazol-5-amine]",≥ 5.00
5,"CN(C)c1cccc(CS(=O)(=O)c2nnc(Nc3c4c(cc5c3CCC5)CCC4)[nH]2)c1 [Example 74, 3-((3-(dimethylamino)benzyl)sulfonyl)-N-(1,2,3,5,6,7-hexahydro-s-indacen-4-yl)-1H-1,2,4-triazol-5-amine]",≥ 5.30
6,"CCN(CC)CCCS(=O)(=O)c1nnc(Nc2c(-c3ccccc3)cc(F)c3c2CCC3)[nH]1 [Example 78, 5-((3-(diethylamino)propyl)sulfonyl)-N-(7-fluoro-5-phenyl-2,3-dihydro-1H-inden-4-yl)-4H-1,2,4-triazol-3-amine]",≥ 5.00
7,"CC(C)CCNS(=O)(=O)c1nnc(Nc2c3c(cc4c2CCC4)CCC3)[nH]1 [Example 82, 5-((1,2,3,5,6,7-hexahydro-s-indacen-4-yl)amino)-N-isopentyl-1H-1,2,4-triazole-3-sulfonamide]",≥ 5.00
8,"COCCNS(=O)(=O)c1nnc(Nc2c3c(cc4c2CCC4)CCC3)[nH]1 [Example 83, 5-((1,2,3,5,6,7-hexahydro-s-indacen-4-yl)amino)-N-(2-methoxyethyl)-4H-1,2,4-triazole-3-sulfonamide]",≥ 5.00
9,"CN1CCC(NS(=O)(=O)c2nnc(Nc3c4c(cc5c3CCC5)CCC4)[nH]2)C1 (centres unmarked) [Example 84, 5-((1,2,3,5,6,7-hexahydro-s-indacen-4-yl)amino)-N-(1-methylpyrrolidin-3-yl)-4H-1,2,4-triazole-3-sulfonamide]",≥ 5.30
10,"O=S(=O)(Nc1ccccc1)c1nnc(Nc2c3c(cc4c2CCC4)CCC3)[nH]1 [Example 85, 5-((1,2,3,5,6,7-hexahydro-s-indacen-4-yl)amino)-N-phenyl-4H-1,2,4-triazole-3-sulfonamide]",≥ 5.00
11,"O=S(=O)(NCc1ccccc1)c1nnc(Nc2c3c(cc4c2CCC4)CCC3)[nH]1 [Example 86, N-benzyl-5-((1,2,3,5,6,7-hexahydro-s-indacen-4-yl)amino)-4H-1,2,4-triazole-3-sulfonamide]",≥ 5.30
12,"CN1CC(CNS(=O)(=O)c2nnc(Nc3c4c(cc5c3CCC5)CCC4)[nH]2)C1 [Example 88, 5-((1,2,3,5,6,7-hexahydro-s-indacen-4-yl)amino)-N-((1-methazetidin-3-yl)methyl)-4H-1,2,4-triazole-3-sulfonamide]",≥ 5.30
13,"CN1CCC(N(C)S(=O)(=O)c2nnc(Nc3c4c(cc5c3CCC5)CCC4)[nH]2)CC1 [Example 90, 5-((1,2,3,5,6,7-hexahydro-s-indacen-4-yl)amino)-N-methyl-N-(1-methylpiperidin-4-yl)-4H-1,2,4-triazole-3-sulfonamide]",≥ 5.00
14,"CN1CCC(CN(C)S(=O)(=O)c2nnc(Nc3c4c(cc5c3CCC5)CCC4)[nH]2)C1 (centres unmarked) [Example 92, 5-((1,2,3,5,6,7-hexahydro-s-indacen-4-yl)amino)-N-methyl-N-((1-methylpyrrolidin-3-yl)methyl)-4H-1,2,4-triazole-3-sulfonamide]",≥ 5.00
15,"O=S(=O)(NCc1ccncc1)c1nnc(Nc2c3c(cc4c2CCC4)CCC3)[nH]1 [Example 96, 5-((1,2,3,5,6,7-hexahydro-s-indacen-4-yl)amino)-N-(pyridin-4-ylmethyl)-4H-1,2,4-triazole-3-sulfonamide]",≥ 5.30
16,"O=S(=O)(NCc1cccnc1)c1nnc(Nc2c3c(cc4c2CCC4)CCC3)[nH]1 [Example 97, 5-((1,2,3,5,6,7-hexahydro-s-indacen-4-yl)amino)-N-(pyridin-3-ylmethyl)-4H-1,2,4-triazole-3-sulfonamide]",≥ 5.30
17,"O=S(=O)(NCc1ccccn1)c1nnc(Nc2c3c(cc4c2CCC4)CCC3)[nH]1 [Example 98, 5-((1,2,3,5,6,7-hexahydro-s-indacen-4-yl)amino)-N-(pyridin-2-ylmethyl)-4H-1,2,4-triazole-3-sulfonamide]",≥ 5.30
18,"Cn1cc(NS(=O)(=O)c2nnc(Nc3c4c(cc5c3CCC5)CCC4)[nH]2)cn1 [Example 99, 5-((1,2,3,5,6,7-hexahydro-s-indacen-4-yl)amino)-N-(1-methyl-1H-pyrazol-4-yl)-4H-1,2,4-triazole-3-sulfonamide]",≥ 5.00
19,"CN1CCN(S(=O)(=O)c2nnc(Nc3c4c(cc5c3CCC5)CCC4)[nH]2)CC1 [Example 100, N-(1,2,3,5,6,7-hexahydro-s-indacen-4-yl)-5-((4-methylpiperazin-1-yl)sulfonyl)-4H-1,2,4-triazol-3-amine]",≥ 5.30
20,"CN1CCC2CN(S(=O)(=O)c3nnc(Nc4c5c(cc6c4CCC6)CCC5)[nH]3)CC21 (centres unmarked) [Example 101, N-(1,2,3,5,6,7-hexahydro-s-indacen-4-yl)-5-((1-methylhexahydropyrrolo[3,4-b]pyrrol-5 (1H)-yl)sulfonyl)-4H-1,2,4-triazol-3-amine]",≥ 5.30
21,"CN1CCC(NS(=O)(=O)c2nnc(Nc3c4c(cc5c3CCC5)CCC4)[nH]2)CC1 [Example 102, 5-((1,2,3,5,6,7-hexahydro-s-indacen-4-yl)amino)-N-(1-methylpiperidin-4-yl)-4H-1,2,4-triazole-3-sulfonamide]",≥ 5.00
22,"O=c1cccc(CNS(=O)(=O)c2nnc(Nc3c4c(cc5c3CCC5)CCC4)[nH]2)[nH]1 [Example 103, 5-((1,2,3,5,6,7-hexahydro-s-indacen-4-yl)amino)-N-((6-oxo-1,6-dihydropyridin-2-yl)methyl)-4H-1,2,4-triazole-3-sulfonamide]",≥ 5.30
23,"CN1CCC[C@H](NS(=O)(=O)c2nnc(Nc3c4c(cc5c3CCC5)CCC4)[nH]2)C1 [Example 105, (S)-5-((1,2,3,5,6,7-hexahydro-s-indacen-4-yl)amino)-N-(1-methylpiperidin-3-yl)-4H-1,2,4-triazole-3-sulfonamide]",≥ 5.30
24,"C[C@@H](CN(C)C)NS(=O)(=O)c1nnc(Nc2c3c(cc4c2CCC4)CCC3)[nH]1 [Example 106, (S)—N-(1-(dimethylamino)propan-2-yl)-5-((1,2,3,5,6,7-hexahydro-s-indacen-4-yl)amino)-4H-1,2,4-triazole-3-sulfonamide]",≥ 5.00
25,"CC(=O)NCCN(C)S(=O)(=O)c1nnc(Nc2c3c(cc4c2CCC4)CCC3)[nH]1 [Example 107, N-(2-(5-((1,2,3,5,6,7-hexahydro-s-indacen-4-yl)amino)-N-methyl-4H-1,2,4-triazole-3-sulfonamido)ethyl)acetamide]",≥ 5.00
26,"COC(=O)CN(CCN)S(=O)(=O)c1nnc(Nc2c3c(cc4c2CCC4)CCC3)[nH]1 [Example 111, methyl 2-(N-(2-aminoethyl)-5-((1,2,3,5,6,7-hexahydro-s-indacen-4-yl)amino)-4H-1,2,4-triazole-3-sulfonamido)acetate]",≥ 5.00
27,"O=S(=O)(NC1CCCNC1)c1nnc(Nc2c3c(cc4c2CCC4)CCC3)[nH]1 (centres unmarked) [Example 112, 5-((1,2,3,5,6,7-hexahydro-s-indacen-4-yl)amino)-N-(piperidin-3-yl)-4H-1,2,4-triazole-3-sulfonamide]",≥ 5.30
28,"CN1CCN(S(=O)(=O)c2nnc(Nc3c4c(cc5c3CCC5)CCC4)[nH]2)CC1=O [Example 113, 4-((5-((1,2,3,5,6,7-hexahydro-s-indacen-4-yl)amino)-4H-1,2,4-triazol-3-yl)sulfonyl)-1-methylpiperazin-2-one]",≥ 5.30
29,"O=C1CCCN1CCNS(=O)(=O)c1nnc(Nc2c3c(cc4c2CCC4)CCC3)[nH]1 [Example 114, 5-((1,2,3,5,6,7-hexahydro-s-indacen-4-yl)amino)-N-(2-(2-oxopyrrolidin-1-yl)ethyl)-4H-1,2,4-triazole-3-sulfonamide]",≥ 5.30
